Measurements published in patent US9587471B2, “Controlling bioavailability of nutrient additions in subsurface formations” (E I DU PONT DE NEMOURS AND COMPANY, priority 2008, dated 2017).

Assays:
[1] = tested on: Pseudomonas stutzeri strain LH4:15, ATCC PTA-8823; experiment: Aerobic growth response (turbidity) to varying concentrations of potential microbial nutrients; type: cell-based; for growth response (turbidity): key: − = no turbidity; + = slight turbidity; ++ = moderate to heavy turbidity
Procedure: Typically cells were grown at a temperature in the range of about 25° C. to about 40° C. in an appropriate medium.
Additional potential microbial nutrients were added at various concentrations as outlined in Table 1. Growth was monitored visually with positive growth indicated by moderate to heavy turbidity.

[2] = tested on: Pseudomonas stutzeri strain LH4:15 (ATCC PTA-8823); experiment: Anaerobic growth and survival: biocidal versus biostatic inhibition; type: cell-based; details: for change in Log cell number: day 0 vs day 7, anaerobic; for Final anaerobic vial OD: starting OD600 = 0.05
Procedure: In this invention, the anaerobic growth and survival was tested in 20 ml crimp-capped anaerobic vials, using a complete nutrient medium of the following composition: Na2HPO4.7H2O, 1.4 g/L, KH2PO4, 0.69 g/L, NH4Cl, 0.5 g/L, MgSO4.7H2O, 0.1/L g, SL-10 trace metals, 10 ml, NaCl, 7.5 g/L, NaHCO3, 7.2 g/L, sodium nitrate, 12 g/L, Na lactate, 7 g/L, yeast extract, 10 mg/L, pH 7.3-7.8.
The anaerobic growth and survival was tested as outlined above. […] Vials were inoculated using an overnight aerobic culture of Pseudomonas stutzeri strain LH4:15 (ATCC PTA-8823) in Luria Bertani medium (LB, Mediatech Inc., Herndon, Va.,) at a final OD600 of 0.05. Within 2 hours of inoculation, serial dilutions from each treatment vial were made into aerobic LB medium to determine the cell numbers at Day 0. After approximately 24 hours cell numbers were estimated by noting the highest positive dilution based on the presence or absence of turbidity in dilutions of 10^−1 to 10^−11 in the serial dilution plates. Cell numbers on Day 0 and Day 7 were measured to obtain a survival estimate during inhibitor exposure.

[3] = 0.05 g/L, 24 hours of incubation
[4] = 0.05 g/L, 48 hours of incubation
[5] = 0.05 g/L, 120 hours of incubation
[6] = 0.5 g/L, 24 hours of incubation
[7] = 0.5 g/L, 48 hours of incubation
[8] = 0.5 g/L, 120 hours of incubation
[9] = 10 g/L, 120 hours of incubation
[10] = 20 g/L, 120 hours of incubation
[11] = 50 g/L, 120 hours of incubation
[12] = 100 g/L, 24 hours of incubation
[13] = 100 g/L, 48 hours of incubation
[14] = 100 g/L, 120 hours of incubation
[15] = 200 g/L, 24 hours of incubation
[16] = 200 g/L, 48 hours of incubation
[17] = 200 g/L, 120 hours of incubation

CCCCCCCCO [Octanol]
Growth response (turbidity) ([1]; 0.001 g/L, 24 hours of incubation): ++ | Growth response (turbidity) ([1]; 0.001 g/L, 48 hours of incubation): ++ | Growth response (turbidity) ([1]; 0.001 g/L, 120 hours of incubation): ++ | Growth response (turbidity) ([1]; 0.005 g/L, 24 hours of incubation): ++ | Growth response (turbidity) ([1]; 0.005 g/L, 48 hours of incubation): ++ | Growth response (turbidity) ([1]; 0.005 g/L, 120 hours of incubation): ++ | Growth response (turbidity) ([1]; 0.01 g/L, 24 hours of incubation): ++ | Growth response (turbidity) ([1]; 0.01 g/L, 48 hours of incubation): ++ | Growth response (turbidity) ([1]; 0.01 g/L, 120 hours of incubation): ++ | Growth response (turbidity) [1, 3]: ++ | Growth response (turbidity) [1, 4]: ++ | Growth response (turbidity) [1, 5]: ++ | Growth response (turbidity) ([1]; 0.25 g/L, 24 hours of incubation): − | Growth response (turbidity) ([1]; 0.25 g/L, 48 hours of incubation): − | Growth response (turbidity) ([1]; 0.25 g/L, 120 hours of incubation): − | Growth response (turbidity) [1, 6]: − | Growth response (turbidity) [1, 7]: − | Growth response (turbidity) [1, 8]: − | change in Log cell number ([2]; 0.05 g/L): 0 | Final anaerobic vial OD ([2]; 0.05 g/L): 0.28 | change in Log cell number ([2]; 0.1 g/L): −1 | Final anaerobic vial OD ([2]; 0.1 g/L): 0.4 | change in Log cell number ([2]; 0.2 g/L): 0 | Final anaerobic vial OD ([2]; 0.2 g/L): 0.54 | change in Log cell number ([2]; 0.25 g/L): −1 | Final anaerobic vial OD ([2]; 0.25 g/L): 0.4 | change in Log cell number ([2]; 0.5 g/L): −1 | Final anaerobic vial OD ([2]; 0.5 g/L): 0.01 | effectiveness of the inhibitor in words ([2]; judged by OD600 and cell killing, Table 3): ineffective except at the highest concentrations

[Cl-].[Na+] [NaCl]
change in Log cell number ([2]; 50 g/L): −1 | Final anaerobic vial OD ([2]; 50 g/L): 0.08 | change in Log cell number ([2]; 80 g/L): −3 | Final anaerobic vial OD ([2]; 80 g/L): 0.11 | change in Log cell number ([2]; 100 g/L): −1 | Final anaerobic vial OD ([2]; 100 g/L): 0.05 | change in Log cell number ([2]; 200 g/L): −2 | Final anaerobic vial OD ([2]; 200 g/L): 0.03 | change in Log cell number ([2]; 400 g/L): −4 | Final anaerobic vial OD ([2]; 400 g/L): 0.03

O=[N+]([O-])[O-].[Na+] [NaNO3, sodium nitrate]
Growth response (turbidity) ([1]; 10 g/L, 24 hours of incubation): ++ | Growth response (turbidity) ([1]; 10 g/L, 48 hours of incubation): ++ | Growth response (turbidity) [1, 9]: ++ | Growth response (turbidity) ([1]; 20 g/L, 24 hours of incubation): ++ | Growth response (turbidity) ([1]; 20 g/L, 48 hours of incubation): ++ | Growth response (turbidity) [1, 10]: ++ | Growth response (turbidity) ([1]; 50 g/L, 24 hours of incubation): − | Growth response (turbidity) ([1]; 50 g/L, 48 hours of incubation): + | Growth response (turbidity) [1, 11]: ++ | Growth response (turbidity) [1, 12]: − | Growth response (turbidity) [1, 13]: − | Growth response (turbidity) [1, 14]: − | Growth response (turbidity) [1, 15]: − | Growth response (turbidity) [1, 16]: − | Growth response (turbidity) [1, 17]: − | concentration at which microbial growth was inhibited ([1]; aerobic growth at 30° C.): ≥ 100 g/L | change in Log cell number ([2]; 50 g/L): −1 | Final anaerobic vial OD ([2]; 50 g/L): 0.06 | change in Log cell number ([2]; 80 g/L): 0 | Final anaerobic vial OD ([2]; 80 g/L): 0.03 | change in Log cell number ([2]; 100 g/L): −2 | Final anaerobic vial OD ([2]; 100 g/L): 0.02 | change in Log cell number ([2]; 200 g/L): −6 | Final anaerobic vial OD ([2]; 200 g/L): 0.03 | change in Log cell number ([2]; 400 g/L): −5 | Final anaerobic vial OD ([2]; 400 g/L): 0.03

OCCO [Ethylene glycol]
Growth response (turbidity) ([1]; 10 g/L, 24 hours of incubation): ++ | Growth response (turbidity) ([1]; 10 g/L, 48 hours of incubation): ++ | Growth response (turbidity) [1, 9]: ++ | Growth response (turbidity) ([1]; 20 g/L, 24 hours of incubation): ++ | Growth response (turbidity) ([1]; 20 g/L, 48 hours of incubation): ++ | Growth response (turbidity) [1, 10]: ++ | Growth response (turbidity) ([1]; 50 g/L, 24 hours of incubation): ++ | Growth response (turbidity) ([1]; 50 g/L, 48 hours of incubation): ++ | Growth response (turbidity) [1, 11]: ++ | Growth response (turbidity) [1, 12]: + | Growth response (turbidity) [1, 13]: ++ | Growth response (turbidity) [1, 14]: ++ | Growth response (turbidity) [1, 15]: − | Growth response (turbidity) [1, 16]: − | Growth response (turbidity) [1, 17]: −

CC(O)C(=O)[O-].[Na+] (centres unmarked) [Na lactate, sodium lactate]
Growth response (turbidity) ([1]; 10 g/L, 24 hours of incubation): ++ | Growth response (turbidity) ([1]; 10 g/L, 48 hours of incubation): ++ | Growth response (turbidity) [1, 9]: ++ | Growth response (turbidity) ([1]; 20 g/L, 24 hours of incubation): ++ | Growth response (turbidity) ([1]; 20 g/L, 48 hours of incubation): ++ | Growth response (turbidity) [1, 10]: ++ | Growth response (turbidity) ([1]; 50 g/L, 24 hours of incubation): − | Growth response (turbidity) ([1]; 50 g/L, 48 hours of incubation): − | Growth response (turbidity) [1, 11]: − | Growth response (turbidity) [1, 12]: − | Growth response (turbidity) [1, 13]: − | Growth response (turbidity) [1, 14]: − | Growth response (turbidity) [1, 15]: − | Growth response (turbidity) [1, 16]: − | Growth response (turbidity) [1, 17]: −

CCO [Ethanol]
Growth response (turbidity) [1, 3]: ++ | Growth response (turbidity) [1, 4]: ++ | Growth response (turbidity) [1, 5]: ++ | Growth response (turbidity) ([1]; 0.1 g/L, 24 hours of incubation): ++ | Growth response (turbidity) ([1]; 0.1 g/L, 48 hours of incubation): ++ | Growth response (turbidity) ([1]; 0.1 g/L, 120 hours of incubation): ++ | Growth response (turbidity) [1, 6]: ++ | Growth response (turbidity) [1, 7]: ++ | Growth response (turbidity) [1, 8]: ++ | Growth response (turbidity) ([1]; 1 g/L, 24 hours of incubation): ++ | Growth response (turbidity) ([1]; 1 g/L, 48 hours of incubation): ++ | Growth response (turbidity) ([1]; 1 g/L, 120 hours of incubation): ++ | Growth response (turbidity) ([1]; 10 g/L, 24 hours of incubation): ++ | Growth response (turbidity) ([1]; 10 g/L, 48 hours of incubation): ++ | Growth response (turbidity) [1, 9]: ++ | Growth response (turbidity) ([1]; 20 g/L, 24 hours of incubation): + | Growth response (turbidity) ([1]; 20 g/L, 48 hours of incubation): ++ | Growth response (turbidity) [1, 10]: ++ | Growth response (turbidity) ([1]; 50 g/L, 24 hours of incubation): − | Growth response (turbidity) ([1]; 50 g/L, 48 hours of incubation): − | Growth response (turbidity) [1, 11]: −

OCC(O)CO [Glycerol]
Growth response (turbidity) ([1]; 10 g/L, 24 hours of incubation): ++ | Growth response (turbidity) ([1]; 10 g/L, 48 hours of incubation): ++ | Growth response (turbidity) [1, 9]: ++ | Growth response (turbidity) ([1]; 20 g/L, 24 hours of incubation): ++ | Growth response (turbidity) ([1]; 20 g/L, 48 hours of incubation): ++ | Growth response (turbidity) [1, 10]: ++ | Growth response (turbidity) ([1]; 50 g/L, 24 hours of incubation): ++ | Growth response (turbidity) ([1]; 50 g/L, 48 hours of incubation): ++ | Growth response (turbidity) [1, 11]: ++ | Growth response (turbidity) [1, 12]: ++ | Growth response (turbidity) [1, 13]: ++ | Growth response (turbidity) [1, 14]: ++ | Growth response (turbidity) [1, 15]: − | Growth response (turbidity) [1, 16]: − | Growth response (turbidity) [1, 17]: −
